# Measurements from patent US9371265B2, “Compositions and methods related to inhibitors of JAK kinase” (EP PHARMA, INC., priority 2012, dated 2016).
# What was measured:
# CD30 = CD30 cell surface expression in SU-DHL-1 cells (flow cytometry); format: cell-based, human; conditions: 24 hours
# From the text: FIGS. 6A-6B. EP009 treatment disrupts constitutive JAK3/STAT3 pathway activation and down-regulates CD30 cell surface expression in human ALCL cells. (A) Kit225 (lane a), SUP-M2 (lane b), Karpas299 (lane c), DEL (lane d) and SU-DHL-1 (lane e) total cell lysates were separated by 7.5% SDS-PAGE (upper panel) or were immunoprecipitated (IP) with JAK3 antibodies (lower panel) and separated on 7.5% SDS-PAGE, and then subjected to Western blot (WB) analysis with the indicated antibodies. (B) SU-DHL-1 cells were treated with vehicle (PBS; lane a) or increasing amounts of EP009 (0-40 μM; lanes b-e) for 12 hours. Cells were then lysed, clarified, and immunoprecipitated (IP) with anti-JAK3 (α-JAK3), and subjected to Western blot (WB) analysis with anti-phosphotyrosine (α-pY). […] Values represent pSTAT mean fluorescence intensity (MFI) normalized to corresponding GAPDH MFI, while error bars represent the standard deviation (n=2). Statistical significance was determined using Student's t-test. […] Cells were then analyzed by flow cytometry for CD30 expression. […]
# Cells were treated in the absence or presence of the indicated concentrations of EP009 for 24 hours, and stained with FITC-labeled mouse anti-human CD30 (Millipore). Stained cells were analyzed by flow cytometry (Cytomics FC500, Beckman Coulter) and quantitated with CXP analysis software version 2.2 (Beckman Coulter) as previously described.24
# [1] = molecular target: ABL1(E255K)-phosphorylated (Homo sapiens, UniProt P00519, E255K); assay: Kinase panel: ABL1(E255K)-phosphorylated; format: biochemical; conditions: 10 μM EP009
# Chain of ABL1(E255K)-phosphorylated (P00519 whole entry E255K): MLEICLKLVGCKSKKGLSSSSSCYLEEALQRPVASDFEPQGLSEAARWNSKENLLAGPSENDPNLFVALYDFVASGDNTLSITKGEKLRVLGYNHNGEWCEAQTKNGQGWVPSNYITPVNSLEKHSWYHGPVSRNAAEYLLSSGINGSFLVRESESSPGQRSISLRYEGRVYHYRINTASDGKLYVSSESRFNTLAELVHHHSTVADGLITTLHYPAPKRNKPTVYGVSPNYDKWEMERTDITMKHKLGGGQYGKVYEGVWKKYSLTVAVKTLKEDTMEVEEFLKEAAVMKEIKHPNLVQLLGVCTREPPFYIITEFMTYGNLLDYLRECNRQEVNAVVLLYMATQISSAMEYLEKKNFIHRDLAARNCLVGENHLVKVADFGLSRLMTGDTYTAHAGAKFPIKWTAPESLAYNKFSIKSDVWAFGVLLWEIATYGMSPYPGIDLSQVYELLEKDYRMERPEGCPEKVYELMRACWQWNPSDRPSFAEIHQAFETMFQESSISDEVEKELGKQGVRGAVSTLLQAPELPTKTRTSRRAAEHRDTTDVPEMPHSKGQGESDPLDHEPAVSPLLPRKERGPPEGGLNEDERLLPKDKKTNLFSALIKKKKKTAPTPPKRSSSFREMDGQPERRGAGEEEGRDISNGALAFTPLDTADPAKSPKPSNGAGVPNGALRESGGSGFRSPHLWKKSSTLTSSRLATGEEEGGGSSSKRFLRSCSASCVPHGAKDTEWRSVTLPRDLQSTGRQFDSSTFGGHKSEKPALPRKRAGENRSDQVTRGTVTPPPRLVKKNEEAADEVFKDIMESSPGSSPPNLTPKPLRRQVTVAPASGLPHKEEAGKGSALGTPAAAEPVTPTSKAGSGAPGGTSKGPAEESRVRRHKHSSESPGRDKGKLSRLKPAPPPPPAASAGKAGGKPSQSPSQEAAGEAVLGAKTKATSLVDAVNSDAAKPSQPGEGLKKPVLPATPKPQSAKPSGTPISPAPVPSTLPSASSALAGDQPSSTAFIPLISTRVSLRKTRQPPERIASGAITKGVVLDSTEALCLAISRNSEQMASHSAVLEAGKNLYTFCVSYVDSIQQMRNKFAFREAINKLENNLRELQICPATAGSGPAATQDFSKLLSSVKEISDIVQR
# Experimental: (§1) Achieving JAK3 selectivity remains a significant challenge in the development of new small molecules for the treatment of cancer and immune-derived diseases. As such, the inventors employed cell-based screening assays of small-molecule libraries based upon the chemical scaffold of the established JAK3 inhibitor NC1153 (Stepkowski et al., J Immunol. (2005), 175(7):4236-4246) EP009 (FIG. 2A) was selected as a lead compound due to improved intrinsic stability (>95% purity in various solvents at 37° C. for 24 hours; FIG. 3) and high-degree of JAK3 selectivity. To test JAK3 versus JAK2 specificity of EP009, the IL-2/JAK3-dependent Kit225, and IL-3/JAK2-dependent BaF/3 cell lines were used. Kit225 and BaF/3 cells growing in the presence of IL-2 or IL-3, respectively, were treated with ascending concentrations of EP009 for 12 hours and cellular JAK3 and JAK2 tyrosine phosphorylation levels detected by Western blot analysis (FIGS. 2B and 2C). Following densitometric analysis, EP009 was determined to dose-dependently reduce IL-2-mediated JAK3 tyrosine phosphorylation with a cellular 50% inhibitory concentration (IC50) between 10 and 20 μM (FIG. 2B). […] To globally evaluate specificity, the inhibitory activity of EP009 was measured against a panel of protein kinases distributed throughout the kinome using the scanEDGE profiling service (KINOMEscan). […]
# SRPK3 = SRPK3 (Homo sapiens, UniProt Q9UPE1); assay: Kinase panel: SRPK3; format: biochemical; conditions: 10 μM EP009
# Chain of SRPK3 (Q9UPE1 whole entry): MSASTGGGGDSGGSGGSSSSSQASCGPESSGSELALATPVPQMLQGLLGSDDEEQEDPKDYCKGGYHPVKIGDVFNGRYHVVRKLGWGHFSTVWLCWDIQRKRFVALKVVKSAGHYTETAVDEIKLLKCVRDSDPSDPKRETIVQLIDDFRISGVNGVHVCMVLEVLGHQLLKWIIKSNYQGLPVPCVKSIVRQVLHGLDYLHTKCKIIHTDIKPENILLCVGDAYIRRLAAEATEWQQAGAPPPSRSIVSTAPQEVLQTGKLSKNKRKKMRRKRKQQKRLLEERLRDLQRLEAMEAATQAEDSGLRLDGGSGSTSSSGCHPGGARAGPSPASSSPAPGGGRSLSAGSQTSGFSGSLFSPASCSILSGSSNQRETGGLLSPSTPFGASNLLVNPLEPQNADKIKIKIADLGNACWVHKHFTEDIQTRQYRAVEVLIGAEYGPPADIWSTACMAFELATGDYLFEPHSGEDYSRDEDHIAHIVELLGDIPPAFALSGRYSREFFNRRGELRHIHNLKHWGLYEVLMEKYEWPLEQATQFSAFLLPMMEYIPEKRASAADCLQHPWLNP
# Experimental: as §1
compound,measurement,setting,value
"C=C1CCCCCCCCCC(CO)C1=O (stereo not drawn) [EP009, 2-(Hydroxymethyl)-12-methylenecyclododecanone]",effect on CD30 surface expression,CD30,dose-dependent CD30 down-regulation
same,Kinase Activity (% of Control),[1],64 % of Control
same,Kinase Activity (% of Control),SRPK3,100 % of Control
